How the values were obtained:
[1] = test system: alloreactive cytolytic T lymphocytes (CTL); experiment: Induction of alloreactive cytolytic T lymphocytes (CTL) in MLC, 51Cr-release microcytotoxicity assay with P815 target cells; format: cell-based, mouse; conditions: for minimum doses required to cause a significant effect (CTL generation in MLC): compared to control CTL generated in drug-free MLC
B6 Mice [2] = experiment: Suppressor cells in treated mice: lymphocytes of treated mice added to a conventional MLC; format: in vivo, mouse; conditions: 3 mg/kg; lymphocytes obtained 5 weeks later; 1-5x10^6 cells added to MLC; dose related
B6 Lymphocytes [3] = experiment: Proliferative responses of lymphocytes to Con A and LPS (3H-TdR incorporation); conditions: 1 to 10-^2 µg/ml
B6 Mice [4] = experiment: Immunosuppression in vivo: lymphocytes from treated mice stimulated in MLC and tested for CTL cytotoxicity; design: species or system mouse; conditions: for cytotoxicity of effector cells from treated mice: after 30 days of treatment
B6 Lymphocytes [5] = experiment: Proliferative response of mouse lymphocytes to alloantigens in mixed lymphocyte cultures (MLC); format: cell-based; conditions: 10-^2 and 10^-4 µg/ml; one-way, 5-day MLC

In the case of `COc1cccc2c1C(=O)c1c(O)c3c(c(O)c1C2=O)C[C@@](O)(C(=O)CO)C[C@@H]3O[C@H]1C[C@H](N)[C@H](O)[C@H](C)O1` [Adriamycin, reference compound], the “minimum doses required to cause a significant effect (CTL generation in MLC)” value [1] is reported as 10^-1 µg/ml.
With `Cl.Cl.O=C1c2c(O)ccc(O)c2C(=O)c2c(NCCNCCO)ccc(NCCNCCO)c21` [Novantrone^TM, reference compound] the “minimum doses required to cause a significant effect (CTL generation in MLC)” value [1] was 10^-3 µg/ml.
In the case of `Cl.Cl.NCCNc1ccc(NCCN)c2c1C(=O)c1c(O)ccc(O)c1C2=O`, the “generation of CTL” value ([1]; 1 to 10-^4 µg/ml in MLC) is reported as “complete failure to generate CTL”, the “% lysis (CTL activity)” value ([1]; 10-^3 µg/ml added 2 days after setting up MLC, p < 0.001 vs control (% lysis = 52.0)) is reported as 22.0% and the “% lysis (CTL activity)” value ([1]; 10-^3 µg/ml added at the same time as initiation of MLC, control % lysis = 52.0) is reported as 2.7%. For the same compound, the “% lysis (CTL activity)” value ([1]; 10-^3 µg/ml added one day after initiation of MLC, control % lysis = 52.0) was 6.4%, the “generation of CTL” value ([1]; 10-^4 mcg/ml) was “consistent failure to generate CTL” and the “% lysis (CTL activity)” value ([1]; 10-^5 mcg/mi added to MLC, p < 0.01 vs control CTL (% lysis = 45.7), 5 days) was 37.0%. For the same compound, the “duration of the suppressive effect (suppression after removal of compound)” value ([1]; 10^-3 µg/ml, compound removed from 1 MLC each day by washing, CTL tested after five days) was “irreversible”, the “effect of cells from drug treated mice on CTL generation by normal lymphocytes” value (B6 Mice [2]) was “significantly prevented normal lymphocytes from becoming effective CTL” and the “proliferation of these cells (Con A or LPS stimulated)” value (B6 Lymphocytes [3]) was “completely abolished”. For the same compound, the “CTL generation of lymphocytes from treated mice” value (B6 Mice [4]; 0.3 mg/kg, day 23 post treatment) was “typical CTL generation was evident”, the “CTL generation by lymphocytes from drug-treated mice” value (B6 Mice [4]; 3 mg/kg i.p., lymphocytes prepared 2 weeks later, 5-day MLC, all E:T ratios tested) was “failed to become effective CTL” and the “cytotoxicity of effector cells from treated mice” value (B6 Mice [4]; 0.3 and 0.75 mg/kg) was “normal level of cytotoxicity”. For the same compound, the “CTL activity of lymphocytes from treated mice” value (B6 Mice [4]; 0.3 to 3.0 mg/kg, day 10 after treatment) was “no CTL activity”, the “cytotoxicity of effector cells from treated mice” value (B6 Mice [4]; 1.5 an 3.0 mg/kg) was “still unable to do so” and the “proliferation of B6 lymphocytes stimulated by D2 lymphocytes” value (B6 Lymphocytes [5]) was “significantly prevented”.

— patent publication EP0154117B1 (dated 1985)
